Measurements taken from patent EP4656207A1, “IN VITRO METHOD FOR T[…] TARGET CELL” (Fundació Hospital Universitari Vall Hebron - Institut de …, priority 2024, dated 2025).

How the values were obtained:
[1] = test system: HEK-293T cells; experiment: Lentiviral transduction enhancement in HEK-293T cells (GFP+ cells by flow cytometry); type: cell-based, human; conditions: for transduction enhancing activity: K18-derived peptides at 1 µM compared with commercial TE, MOI = 1 (Figure 3)
Method: (§1) To carry out the transduction enhancement assays, 3000 cells (HEK-293T or NIH/3T3, both purchased at the ATCC) were seeded in 100 µL of culture medium (consisting of Dulbecco's Modified Eagle Medium (high glucose) (DMEM, Gibco™), supplemented with 10% fetal bovine serum (FBS), 1% L-glutamine and 1% penicillin/streptomycin (P/S) (both from Cultek S.L.U.), per well, in culture-treated flat-bottomed 96-well plates, and incubated for 24 h at 37° with 5% CO2 and 100% relative humidity.
(§2) The vector was diluted in complete medium, and the appropriate amounts were added to each well at the chosen MOI into a final volume of 200 µL per well, in the absence or presence of the chosen TE (peptides, LB, VF-1, PS, RN, PGE2) at different concentrations and following the manufacturer's recommendations. The culture medium was changed 24 h after transduction and the cells were incubated for 48 h more until the plate was analyzed 3 days post-transduction by flow cytometry.
All experiments included a non-transduced control (cells only) without vector exposure, and a control with vectors but without TE (basal transduction). In all assays, a minimum of three replicates (technical replicates) were performed per experimental condition, and were repeated a minimum of three times (experimental replicates) for statistical analysis.
Transduction efficiency was analyzed using an LSR Fortessa cell analyzer (Becton, Dickinson, New Jersey, USA), after 3, 7 or 14 days post-transduction (depending on the target cell type). First, cells were transferred using a multichannel pipette to a U-bottom 96-well plate. Live and dead cells were dis-criminated using 1 µg/mL 7-amino-actinomycin D (7-AAD).
To analyze the transduction efficacy and cytotoxicity of the compounds used, different gates of analysis were defined. Samples of transduced cells (labeled and unlabeled with PI or 7-AAD), with a minimum of 10.000 events in the relevant gate, were acquired. Further, appropriate thresholds were established to define the cell populations. Four final gates were created and applied sequentially: • Gate 1. Plotting forward scatter high or FSC-H (Forward scatter height) versus forward scatter area or FSC-A (Forward scatter area). Here single events were gated to eliminate doublets. • Gate 2. Plotting the Side scatter area (SSC-A) against the Forward scatter area (FSC-A). This gate was used to eliminate cellular debris and atypical and undesired events, taking into account their morphology and complexity. • Gate 3. Thanks to the labeling of the cells with PI or 7-AAD it was possible to calculate the percentage of dead cells and eliminate them from the study. Only live cells were considered for the subsequent analysis gate. • Gate 4. The percentage of live transduced cells was obtained using eGFP fluorescence (FL1). As an additional parameter, the Mean Fluorescence Intensity (MFI) of the transduced cells was measured. The MFI is the mean of all fluorescence intensities of individual cells (or events) in a desired population. In our case, the MFI values obtained represented the mean fluorescence level of eGFP in the transduced cells (gate 4). All data were obtained and analyzed using FACSDiva software v6.2 and FlowJo v10 software (both from BD Biosciences).

[2] = test system: CD4^+ T cells; experiment: Lentiviral (anti-CD19 CAR) transduction enhancement in CD4+ T cells (flow cytometry); type: cell-based, human; conditions: 72 h after transduction; differences between the four compounds not statistically significant (Figure 6)
Method: • 1. After isolation and activation of the CD4^+ T cells, a suspension of 10^6 cells/mL was prepared and 100 µL were added per well to a 96-well flat-bottom plate and incubated at 37°C, 5% CO2, and 100% relative humidity. After 24 h in culture, the vector was diluted to the desired concentration and mixed with the different TEs (peptides, LB, VF-1, PS, PGE2), and 50 µL per well of the vector-TEs solution was added. The A3B1:CD8:4-1BB:CD3ζ (also named ARI001-CodonOptimized3 vector), a third generation lentiviral vector encoding an anti-human CD19 CAR, was used for this assay. • 2. After 72 h post-transduction, samples were collected and stained for flow cytometry analysis: First, the entire plate contents were transferred to a pre-labeled 96-well roundbottom plate. Two washes were performed with 1X PBS, adding 100 µL per well and centrifuging the plate for 2' at 2000 rpm. In the last wash, the supernatant was discarded, and 100 µL of a working solution of eFluor™ 450 - Fixable Viability Dye Live/Dead (eBioscience™) was added and incubated for 30' at RT. • 3. Two washes were performed with 200 µL of FACS buffer (PBS 1X + 3% FBS). […] Finally, transduction efficiency was analyzed by flow cytometry to determine the percentage of CAR-positive T cells.

[3] = test system: NK cells; experiment: Lentiviral transduction enhancement in primary NK cells (flow cytometry); type: cell-based, human; conditions: MOI = 5; for fold changes: fold change relative to basal transduction, 1.5 µM
Method: • 1. Total blood samples were collected and processed in less than 4 h. After obtaining the peripheral blood mononuclear cells (PBMCs) by density gradient centrifugation (Ficoll), NK cells (following the instructions of the Miltenyi Biotec isolation kit) from human they were seeded in a 24-well plate [10^6 cells per well in 1 mL of complete medium (NK MACS supplemented with 5% AB serum (Tebu-Bio, Le Perray, France), recombinant human IL-2 (rhIL-2) and recombinant human IL-15 (rhIL-15), both from Miltenyi Biotec)], and incubated at 37°C, 5% CO2, and 100% relative humidity. • 2. After 48 h in culture, cells were counted, and about 40,000 cells were seeded in 100 µL of complete medium (per well) in culture-treated 96-well flat-bottom plate. The transduction process was performed as follows: • 3. Calculate the required volume of lentiviral vector for a known number of NK cells and desired MOI, and the vector diluted in complete medium. Simultaneously, prepare all the enhancers to be used in the assay (micellar peptides, LB, PS, VF-1, etc.) at the concentrations recommended by the manufacturers. […] At days 3, 7 and 14 post-transduction, the cells were analyzed by flow cytometry.
(§3) Transduction efficiency was analyzed using an LSR Fortessa cell analyzer (Becton, Dickinson, New Jersey, USA), after 3, 7 or 14 days post-transduction (depending on the target cell type). […]
To analyze the transduction efficacy and cytotoxicity of the compounds used, different gates of analysis were defined. […] The percentage of live transduced cells was obtained using eGFP fluorescence (FL1). As an additional parameter, the Mean Fluorescence Intensity (MFI) of the transduced cells was measured. The MFI is the mean of all fluorescence intensities of individual cells (or events) in a desired population. In our case, the MFI values obtained represented the mean fluorescence level of eGFP in the transduced cells (gate 4). All data were obtained and analyzed using FACSDiva software v6.2 and FlowJo v10 software (both from BD Biosciences).

[4] = test system: CD34^+ cells; experiment: Lentiviral transduction enhancement in CD34+ hematopoietic cells (flow cytometry); type: cell-based, human; conditions: peptides at 3 µM, LB 5 mg/mL; MOI = 1; days 3, 7 and 14 after transduction; only K18-8R and LentiBoost statistically significant vs basal transduction (Figure 4)
Method: • 1. The CD34^+ cells were isolated from apheresis products from healthy donors and cryopreserved in liquid nitrogen until use. Cells were then thawed, counted with trypan blue, and seeded in culture-treated 96-well flat-bottom plates, about 50.000 cells per well in 100 µL of complete StemSpan™ SFEM Hematopoietic Cell Culture Medium (SFEM medium) (Stem Cell Technologies™, Vancouver, Canada), and incubated at 37°C, 5% CO2 and 100% relative humidity. The complete medium was supplemented with recombinant human stem cell factor (rhSCF), recombinant human flt3 ligand (rhFlt3-L) and recombinant human thrombopoietin (rhTpo) (all from EuroBioScience, Friesoythe, Germany). • 2. After 24 h in culture, the cells were transduced as follow: Previously, the required volume of lentiviral vector was calculated in accordance with the vector titer, the CD34^+ target cell number and the desired MOI. Prior to its use, the vector was diluted in complete SFEM medium. • 3. […] Finally, at 3, 7 and 14 days post-transduction, the cells were analyzed by flow cytometry and the plates were stored at -80° for future analyses.
as §3

[5] = concentrations higher than 10-15 µM; dose-dependent
Method: Studies with the fluorochrome Yo-Pro-1 were performed at the laboratory of Dr. Pablo Pelegrin, at the University of Murcia.

[6] = test system: NIH/3T3 cells; experiment: Lentiviral transduction enhancement in NIH/3T3 cells (GFP+ cells and living cells by flow cytometry); type: cell-based, murine; conditions: micellar peptide at 1 µM; MOI = 1; GFP+ cells 72 h after vector exposure; compared with other TEs (Figure 1)
Method: as §1
as §2, with “cytometry. […]” for “cytometry.”
as §3
To analyze the transduction efficacy and cytotoxicity of the compounds used, different gates of analysis were defined. […] The percentage of live transduced cells was obtained using eGFP fluorescence (FL1). […]

[7] = Antimicrobial activity; type: cell-based; conditions: concentrations higher than 10-15 µM; dose-dependent

With “LLNIKVKLEAEIATYRRLLE (poloxamer F-127 micelles) [K18, conjugated to poloxamer F-127 polymeric micelles]” the transduction enhancing activity [1] was “highest activity”.

In the case of “LLNIKVKLEAEIRRRRRRRR (poloxamer F-127 micelles) [K18-8R, first 12 amino acids of K18 plus an 8R tail; conjugated to poloxamer F-127 polymeric micelles]”, the transduction efficiency [2] is reported as “highest transduction efficiency”, the fold changes ([3]; day 3) is reported as 2.2 and the fold changes ([3]; day 14) is reported as 3.5. For the same sequence, the enhancing activity ([3]; peptides at 1.5 µM, compared with scrambled control, micelle alone and LB (Figure 7)) was “highest enhancing activity”, the “transduction enhancing activity at higher concentrations” value ([1]; 5 µM or more, MOI 1 and 5, perhaps due to toxicity (Figure 2)) was “decreased” and the transduction enhancing activity [1] was “highest activity”. For the same sequence, the transduction enhancement ([1]; peptide at 1 µM, MOI 1 and 5, experiment made only once (Figure 2)) was “highest transduction enhancement”, the “enhancing efficacy (transduction efficiencies by flow cytometry)” value [4] was “highest enhancing efficacy” and the cytotoxic activity [5] was “predominated”. For the same sequence, the hemolytic activity [5] was “predominated”, the transduction enhancing activity [6] was “highest transduction enhancing activity” and the antimicrobial activity [7] was “predominated”.

For “LLNKEIKIEVALARRRRRRRR (polymeric micelles) [Sc-K18-8R, conjugated to polymeric micelles, reference compound]”, the “enhancing efficacy (transduction efficiencies by flow cytometry)” value [4] was “significant enhancing activity”.

With LLNVKMALDIEIRRRRRRRR [DIF-P-8R] the enhancing activity ([1]; several concentrations, MOI 1 and 5, experiment made only once (Figure 2)) was “enhancing activity, that was higher at 5-15 µM than at 1 µM”.
